This assay deals with T1, protein tyrosine phosphatase 1B (PTP1B) (Homo sapiens, UniProt P18031).
T1 construct: gene PTPN1
T1 sequence (P18031 1-435): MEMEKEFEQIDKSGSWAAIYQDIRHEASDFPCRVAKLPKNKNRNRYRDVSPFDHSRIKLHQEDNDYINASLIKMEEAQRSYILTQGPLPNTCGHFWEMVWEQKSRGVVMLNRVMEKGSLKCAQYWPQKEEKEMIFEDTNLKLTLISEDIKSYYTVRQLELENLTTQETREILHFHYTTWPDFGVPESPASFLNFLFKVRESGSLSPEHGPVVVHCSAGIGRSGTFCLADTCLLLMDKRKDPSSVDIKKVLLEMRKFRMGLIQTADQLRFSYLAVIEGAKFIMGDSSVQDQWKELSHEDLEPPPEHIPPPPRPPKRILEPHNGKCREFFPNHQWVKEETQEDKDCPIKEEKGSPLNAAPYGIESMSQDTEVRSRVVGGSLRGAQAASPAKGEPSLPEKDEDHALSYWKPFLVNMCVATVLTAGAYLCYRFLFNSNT
As to the kind of experiment: p-NPP hydrolysis assay with recombinant enzyme; Lineweaver–Burk kinetics. It counts as biochemical.

Regarding `CC(C)C[C@@H]1C[C@H](C)[C@@H]2CC[C@H](C)c3ccc(CO)c1c32` [compound 1, acrepseudoterin], the IC50 came out at 22.8 ± 1.1 µM.

For orientation: IC50 means the concentration that inhibits the measured activity by half.

The record behind these values is article PMC8468024, “PTP1B Inhibitory Secondary Metabolites from an Antarctic Fungal Strain Acremonium sp. SF-7394” (Molecules, 2021).
